Data: patent US20230174662A1, “METHODS OF TREATING CASTRATE-RESISTANT PROSTATE CANCER” (FONDAZIONE PER L'ISTITUTO ONCOLOGICO DI RICERCA (IOR), priority 2019, published 2023)

Tests used:
CDCP1 in LNCaP ADS cells = details: DHT stimulation 16 h after 2 days in FAD
Description: C. Left panel, Quantitative real time PCR analysis of CDCP1 mRNA levels in LNCaP grown in full media, full androgen depreviation (FAD) and stimulated with dihydrotestosterone (DHT 1 μM, 16 h) after grown for 2 days in FAD. Right panel, Western blot analysis of CDCP1, p-SRC, SRC, p-AKT, AKT, p-ERK1/2 and ERK1/2 in LNCaP grown in full media, FAD and stimulated with DHT (1 μM, 16 h) after grown for 2 days in FAD.
Tissue and cell lysates were prepared with RIPA buffer (Catalog #9806, Cell Signaling Technology) with PMSF (Phenylmethanesulfonyl fluoride; Catalog #329-98-6, Sigma). Protein concentrations of the lysates were measured by Pierce BCA Protein Assay Kit (Catalog #23225, Thermo Scientific). The lysates were then resolved by SDS-PAGE and immunoblotted with the indicated antibodies.
RNA was extracted using TRIzol® Plus RNA Purification Kit (Catalog #12183555, Life technologies). 1 μg of total RNA was used for cDNA synthesis using SuperScript® III Platinum® One-Step qRT-PCR Kit (Catalog #11732-020, Life technologies). […] All qRT-PCR data presented was normalized using GAPDH, HRPT or 18S rRNA.

LNCaP xenografts = experiment: LNCaP xenograft tumour growth in SCID mice; format: in vivo, mouse; details: single agent, LNCaP s.c. in SCID mice, one week; Enzalutamide 10 mg/kg
Description: (§1) FIG. 7A. Left panel, Quantification of fold change in growth by crystal violet in LNCaP kept in full media and in LNCaP kept in full media and treated with mAb-CUB4. Right panel, Quantification of fold change in growth by crystal violet in LNCaP kept in FAD and in LNCaP kept in FAD and treated with mAb-CUB4. B. Left panel, Xenografts tumour growth (mm3) of LNCaP cell line untreated, treated with Enzalutamide, Immuno-liposome and treated with the combination of Enzalutamide and immuno-liposome. Right panel, quantification of fold change in protein levels of Cleaved Caspase 3 in LNCaP xenografts groups. C. Western blot analysis of CDCP1 expression, p-SRC and Cleaved Caspase 3 in LNCaP xenografts groups.
(§2) These findings were further validated in LNCaP-abl cells, an androgen insensitive cell line. […] Given the fact that CDCP1 expression is elevated by androgen deprivation, we postulated that targeting CDCP1 could serve as a powerful tool to treat prostate cancers treated with enzalutamide. […] Since senescence works as a double edge sword that may stimulate cancer cell growth in certain conditions, we decided to develop a novel anti-CDCP1 dual steal immunoliposome carrying doxorubicin (anti-CDCP1 ILs) to eliminate the CDCP1 overexpressing resistant cells.

[1] = tested on: CDCP1 in LNCaP xenografts; experiment: Western blot of CDCP1 in LNCaP xenografts; format: in vivo, mouse; details: Enzalutamide alone
Description: as §1, §2

Structure (SMILES): C[C@]12CCC(=O)C[C@@H]1CC[C@@H]1[C@@H]2CC[C@]2(C)[C@@H](O)CC[C@@H]12 [DHT, 5α-Dihydrotestosterone]
- CDCP1 expression and protein levels (CDCP1 in LNCaP ADS cells): reduced its expression and protein levels

Structure (SMILES): CNC(=O)c1ccc(N2C(=S)N(c3ccc(C#N)c(C(F)(F)F)c3)C(=O)C2(C)C)cc1F [Enzalutamide, 4-[3-[4-cyano-3-(trifluoromethyl)phenyl]-5,5-dimethyl-4-oxo-2-sulfanylideneimidazolidin-1-yl]-2-fluoro-N-methylbenzamide]
- effect on tumor growth (LNCaP xenografts): minor effect on tumor growth
- levels of CDCP1 by Western blot [1]: significant increased levels of CDCP1
